Test results as given in US20250263459A1, “STABILIZED PACAP PEPTIDE” (SENJU PHARMACEUTICAL CO., LTD., priority 2019, published 2025).
Non-standard residues stand in square brackets, D forms with d. Residues, ends and D or L forms follow the SMILES beside them. Ala(1H-tetrazol-5-yl) = N[C@@H](Cc1nnn[nH]1)C(=O)O

Assay: Stability test 1, sample preparation 5: survival rate of peptide in Tris buffer (pH 7.0) after storage, HPLC
Format: physicochemical
Details: 100 μM peptide; for survival rate after correction for water, 40° C. 4 week / survival rate after correction for water, 40° C. 8 week: Tris buffer pH 7.0, 40° C.; for survival rate after correction for water, 40° C. 4 week: 4 weeks (Table 13); for survival rate after correction for water, 40° C. 8 week: 8 weeks (Table 13); for survival rate after correction for water, 60° C. 1 week / survival rate after correction for water, 60° C. 2 week: Tris buffer pH 7.0, 60° C.; for survival rate after correction for water, 60° C. 1 week: 1 week (Table 13); for survival rate after correction for water, 60° C. 2 week: 2 weeks (Table 13)
Procedure: The peak area value for the peptide in the chromatogram was calculated, and the survival rate (survival rate before correction for water) was calculated using formula (2). The survival rate after correction for water was also calculated from the survival rate before correction for water using formula (3) to take into account the permeability of the container.
The prepared peptide solutions were incubated for 4 weeks or 8 weeks in a 40° C. thermostatic bath, and for one week or 2 weeks in a thermostatic bath at 60° C., to obtain stored samples.
The following gradient time was used only for peptide 30.

SMILES	survival rate after correction for water, 40° C. 4 week	survival rate after correction for water, 40° C. 8 week	survival rate after correction for water, 60° C. 1 week	survival rate after correction for water, 60° C. 2 week
CC[C@H](C)[C@H](NC(=O)CNC(=O)[C@H](Cc1nnn[nH]1)NC(=O)[C@H](CO)NC(=O)[C@H](Cc1c[nH]cn1)NC(C)=O)C(=O)N[C@@H](Cc1ccccc1)C(=O)N[C@@H](C)C(=O)N[C@@H](Cc1nnn[nH]1)C(=O)N[C@@H](CO)C(=O)N[C@@H](Cc1ccc(O)cc1)C(=O)N[C@@H](CO)C(=O)N[C@@H](CCCNC(=N)N)C(=O)N[C@@H](Cc1ccc(O)cc1)C(=O)N[C@@H](CCCNC(=N)N)C(=O)N[C@@H](CCCCN)C(=O)N[C@@H](C)C(=O)N[C@@H](CC(C)C)C(=O)N[C@@H](C)C(=O)N[C@H](C(=O)N[C@@H](CCCCN)C(=O)N[C@@H](CCCCN)C(=O)N[C@@H](Cc1ccc(O)cc1)C(=O)N[C@@H](CC(C)C)C(=O)N[C@@H](C)C(=O)N[C@@H](C)C(=O)N[C@H](C(=O)N[C@@H](CC(C)C)C(N)=O)C(C)C)C(C)C [Peptide 28, HSTzGI FATzSY SRYRK ALAVK KYLAA VL] (Ac-HS[Ala(1H-tetrazol-5-yl)]GIFA[Ala(1H-tetrazol-5-yl)]SYSRYRKALAVKKYLAAVL-NH2)	94.1%	89.8%	98.6%	90.9%
CC(=O)N[C@@H](Cc1c[nH]cn1)C(=O)N[C@@H](CO)C(=O)N[C@@H](Cc1nnn[nH]1)C(=O)NCC(=O)N[C@@H](C)C(=O)N[C@@H](Cc1ccccc1)C(=O)N[C@H](C(=O)N[C@@H](Cc1nnn[nH]1)C(=O)N[C@@H](CO)C(=O)N[C@@H](Cc1ccc(O)cc1)C(=O)N[C@@H](CO)C(=O)N[C@@H](CCCNC(=N)N)C(=O)N[C@@H](Cc1ccc(O)cc1)C(=O)N[C@@H](CCCNC(=N)N)C(=O)N[C@@H](CCCCN)C(=O)N[C@@H](CCC(N)=O)C(=O)N[C@@H](CC(C)C)C(=O)N[C@@H](C)C(=O)N[C@H](C(=O)N[C@@H](CCCCN)C(=O)N[C@@H](CCCCN)C(=O)N[C@@H](Cc1ccc(O)cc1)C(=O)N[C@@H](CC(C)C)C(=O)N[C@@H](C)C(=O)N[C@@H](C)C(=O)N[C@H](C(=O)N[C@@H](CC(C)C)C(N)=O)C(C)C)C(C)C)[C@@H](C)O [Peptide 23, HSTzGA FTTzSY SRYRK QLAVK KYLAA VL] (Ac-HS[Ala(1H-tetrazol-5-yl)]GAFT[Ala(1H-tetrazol-5-yl)]SYSRYRKQLAVKKYLAAVL-NH2)	87.7%	89.1%	96.4%	91.3%
CC[C@H](C)[C@H](NC(=O)CNC(=O)[C@H](Cc1nnn[nH]1)NC(=O)[C@H](C)NC(=O)[C@H](Cc1c[nH]cn1)NC(C)=O)C(=O)N[C@@H](Cc1ccccc1)C(=O)N[C@@H](C)C(=O)N[C@@H](Cc1nnn[nH]1)C(=O)N[C@@H](CO)C(=O)N[C@@H](Cc1ccc(O)cc1)C(=O)N[C@@H](CO)C(=O)N[C@@H](CCCNC(=N)N)C(=O)N[C@@H](Cc1ccc(O)cc1)C(=O)N[C@@H](CCCNC(=N)N)C(=O)N[C@@H](CCCCN)C(=O)N[C@@H](CCC(N)=O)C(=O)N[C@@H](CC(C)C)C(=O)N[C@@H](C)C(=O)N[C@H](C(=O)N[C@@H](CCCCN)C(=O)N[C@@H](CCCCN)C(=O)N[C@@H](Cc1ccc(O)cc1)C(=O)N[C@@H](CC(C)C)C(=O)N[C@@H](C)C(=O)N[C@@H](C)C(=O)N[C@H](C(=O)N[C@@H](CC(C)C)C(N)=O)C(C)C)C(C)C [Peptide 25, HATzGI FATzSY SRYRK QLAVK KYLAA VL] (Ac-HA[Ala(1H-tetrazol-5-yl)]GIFA[Ala(1H-tetrazol-5-yl)]SYSRYRKQLAVKKYLAAVL-NH2)	91.3%	85.1%	97.3%	93.1%
CC[C@H](C)[C@H](NC(=O)CNC(=O)[C@H](Cc1nnn[nH]1)NC(=O)[C@H](CO)NC(=O)[C@H](Cc1c[nH]cn1)NC(C)=O)C(=O)N[C@@H](Cc1ccccc1)C(=O)N[C@@H](C)C(=O)N[C@@H](Cc1nnn[nH]1)C(=O)N[C@@H](CO)C(=O)N[C@@H](Cc1ccc(O)cc1)C(=O)N[C@@H](CO)C(=O)N[C@@H](CCCNC(=N)N)C(=O)N[C@@H](Cc1ccc(O)cc1)C(=O)N[C@@H](CCCNC(=N)N)C(=O)N[C@@H](CCCCN)C(=O)N[C@@H](CCC(N)=O)C(=O)N[C@@H](CC(C)C)C(=O)N[C@@H](C)C(=O)N[C@H](C(=O)N[C@@H](CCCCN)C(=O)N[C@@H](CCCCN)C(=O)N[C@@H](Cc1ccc(O)cc1)C(=O)N[C@@H](CC(C)C)C(=O)N[C@@H](C)C(=O)N[C@@H](C)C(=O)N[C@H](C(=O)N[C@@H](CC(C)C)C(N)=O)C(C)C)C(C)C [Peptide 24, HSTzGI FATzSY SRYRK QLAVK KYLAA VL] (Ac-HS[Ala(1H-tetrazol-5-yl)]GIFA[Ala(1H-tetrazol-5-yl)]SYSRYRKQLAVKKYLAAVL-NH2)	90.5%	83.5%	99.5%	91.1%
CC[C@H](C)[C@H](NC(=O)CNC(=O)[C@H](Cc1nnn[nH]1)NC(=O)[C@H](C)NC(=O)[C@H](Cc1c[nH]cn1)NC(C)=O)C(=O)N[C@@H](Cc1ccccc1)C(=O)N[C@@H](C)C(=O)N[C@@H](Cc1nnn[nH]1)C(=O)N[C@@H](C)C(=O)N[C@@H](Cc1ccc(O)cc1)C(=O)N[C@@H](CO)C(=O)N[C@@H](CCCNC(=N)N)C(=O)N[C@@H](Cc1ccc(O)cc1)C(=O)N[C@@H](CCCNC(=N)N)C(=O)N[C@@H](CCCCN)C(=O)N[C@@H](C)C(=O)N[C@@H](C)C(=O)N[C@@H](C)C(=O)N[C@H](C(=O)N[C@@H](CCCCN)C(=O)N[C@@H](CCCCN)C(=O)N[C@@H](Cc1ccc(O)cc1)C(=O)N[C@@H](CC(C)C)C(=O)N[C@@H](C)C(=O)N[C@@H](C)C(=O)N[C@H](C(=O)N[C@@H](CC(C)C)C(N)=O)C(C)C)C(C)C [Peptide 30, HATzGI FATzAY SRYRK AAAVK KYLAA VL] (Ac-HA[Ala(1H-tetrazol-5-yl)]GIFA[Ala(1H-tetrazol-5-yl)]AYSRYRKAAAVKKYLAAVL-NH2)	91.5%	83.4%	96.7%	93.7%
CC[C@H](C)[C@H](NC(=O)CNC(=O)[C@H](Cc1nnn[nH]1)NC(=O)[C@H](CO)NC(=O)[C@H](Cc1c[nH]cn1)NC(C)=O)C(=O)N[C@@H](Cc1ccccc1)C(=O)N[C@@H](C)C(=O)N[C@@H](Cc1nnn[nH]1)C(=O)N[C@@H](CO)C(=O)N[C@@H](Cc1ccc(O)cc1)C(=O)N[C@@H](CO)C(=O)N[C@@H](CCCNC(=N)N)C(=O)N[C@@H](Cc1ccc(O)cc1)C(=O)N[C@@H](CCCNC(=N)N)C(=O)N[C@@H](CCCCN)C(=O)N[C@@H](CCC(N)=O)C(=O)N[C@@H](C)C(=O)N[C@@H](C)C(=O)N[C@H](C(=O)N[C@@H](CCCCN)C(=O)N[C@@H](CCCCN)C(=O)N[C@@H](Cc1ccc(O)cc1)C(=O)N[C@@H](CC(C)C)C(=O)N[C@@H](C)C(=O)N[C@@H](C)C(=O)N[C@H](C(=O)N[C@@H](CC(C)C)C(N)=O)C(C)C)C(C)C [Peptide 29, HSTzGI FATzSY SRYRK QAAVK KYLAA VL] (Ac-HS[Ala(1H-tetrazol-5-yl)]GIFA[Ala(1H-tetrazol-5-yl)]SYSRYRKQAAVKKYLAAVL-NH2)	86.1%	77.4%	96.3%	91.9%
